Laboratory results as given in ChEMBL document CHEMBL4004889, “Discovery of selective ATP-competitive eIF4A3 inhibitors” (Bioorg Med Chem, 2017).

Legend:
[1] = biological target: T1, Eukaryotic initiation factor 4A-III (Homo sapiens, UniProt P38919); test: Binding affinity to full length recombinant human N-terminal His6/SUMO-tagged eIF4A3 expressed in Escherichia coli BL21(DE3) administered for 60 to 120 secs by surface plasmon resonance biosensing assay
[2] = biological target: T1, Eukaryotic initiation factor 4A-III; test: Inhibition of MLN51-induced full length recombinant human N-terminal His6/SUMO-tagged eIF4A3 RNA dependent ATPase activity expressed in Escherichia coli BL21(DE3) using 60 ug/ml single stranded poly(U) RNA as substrate after 30 mins by ADP-Glo luminescence assay
[3] = biological target: Eukaryotic initiation factor 4A-II (Homo sapiens, UniProt Q14240); test: Inhibition of eIF4G-induced eIF4A2 (unknown origin) RNA dependent ATPase activity expressed in Escherichia coli BL21(DE3) using single stranded poly(U) RNA as substrate after 40 mins by ADP-Glo luminescence assay
Eukaryotic initiation factor 4A-II, sequence (Q14240 whole entry): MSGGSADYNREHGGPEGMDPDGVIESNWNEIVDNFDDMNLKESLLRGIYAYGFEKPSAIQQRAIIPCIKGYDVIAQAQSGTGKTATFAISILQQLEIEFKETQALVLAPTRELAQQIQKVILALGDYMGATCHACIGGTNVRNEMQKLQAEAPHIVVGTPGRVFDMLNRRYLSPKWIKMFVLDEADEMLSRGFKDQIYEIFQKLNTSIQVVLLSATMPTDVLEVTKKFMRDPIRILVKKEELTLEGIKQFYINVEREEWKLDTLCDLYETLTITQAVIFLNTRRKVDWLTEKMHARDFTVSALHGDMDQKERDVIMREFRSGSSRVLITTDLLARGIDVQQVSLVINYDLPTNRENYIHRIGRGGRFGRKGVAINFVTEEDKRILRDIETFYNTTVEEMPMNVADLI

[4] = biological target: Eukaryotic initiation factor 4A-I (Homo sapiens, UniProt P60842); test: Inhibition of eIF4G-induced full length recombinant human N-terminal His6/SUMO-tagged eIF4A1 RNA dependent ATPase activity expressed in Escherichia coli BL21(DE3) using single stranded poly(U) RNA as substrate after 40 mins by ADP-Glo luminescence assay
Eukaryotic initiation factor 4A-I, sequence (P60842 whole entry): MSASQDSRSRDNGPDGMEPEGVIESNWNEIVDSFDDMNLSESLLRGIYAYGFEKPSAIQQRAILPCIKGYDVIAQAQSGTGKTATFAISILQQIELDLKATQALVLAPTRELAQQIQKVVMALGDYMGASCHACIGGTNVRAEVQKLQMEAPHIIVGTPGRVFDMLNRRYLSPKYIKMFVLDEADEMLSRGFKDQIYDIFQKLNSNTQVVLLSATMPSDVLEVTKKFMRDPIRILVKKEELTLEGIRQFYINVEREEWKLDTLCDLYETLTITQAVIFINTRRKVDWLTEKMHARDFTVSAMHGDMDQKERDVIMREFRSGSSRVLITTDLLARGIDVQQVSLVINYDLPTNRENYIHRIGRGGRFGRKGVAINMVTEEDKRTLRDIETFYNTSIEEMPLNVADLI

[5] = biological target: T1, Eukaryotic initiation factor 4A-III
Description: Binding affinity to full length recombinant human N-terminal His6/SUMO-tagged eIF4A3 expressed in Escherichia coli BL21(DE3) assessed as change in Gibbs free energy by isothermal titration calorimetric method

[6] = biological target: T1, Eukaryotic initiation factor 4A-III; remark: listed apart in the source
Description: Binding affinity to full length recombinant human N-terminal His6/SUMO-tagged eIF4A3 expressed in Escherichia coli BL21(DE3) assessed as dissociation half-life administered for 60 to 120 secs by surface plasmon resonance biosensing assay

[7] = biological target: T1, Eukaryotic initiation factor 4A-III; remark: listed apart in the source
Description: Binding affinity to full length recombinant human N-terminal His6/SUMO-tagged eIF4A3 expressed in Escherichia coli BL21(DE3) assessed as change in enthalpy by isothermal titration calorimetric method

[8] = biological target: T2, ATP-dependent RNA helicase DHX29 (Homo sapiens, UniProt Q7Z478); test: Inhibition of full length recombinant human N-terminal FLAG-His-tagged DHX29 RNA dependent ATPase activity expressed in baculovirus infected Sf9 insect cells using single stranded poly(U) RNA as substrate after 30 mins by ADP-Glo luminescence assay
T2 sequence (Q7Z478 whole entry): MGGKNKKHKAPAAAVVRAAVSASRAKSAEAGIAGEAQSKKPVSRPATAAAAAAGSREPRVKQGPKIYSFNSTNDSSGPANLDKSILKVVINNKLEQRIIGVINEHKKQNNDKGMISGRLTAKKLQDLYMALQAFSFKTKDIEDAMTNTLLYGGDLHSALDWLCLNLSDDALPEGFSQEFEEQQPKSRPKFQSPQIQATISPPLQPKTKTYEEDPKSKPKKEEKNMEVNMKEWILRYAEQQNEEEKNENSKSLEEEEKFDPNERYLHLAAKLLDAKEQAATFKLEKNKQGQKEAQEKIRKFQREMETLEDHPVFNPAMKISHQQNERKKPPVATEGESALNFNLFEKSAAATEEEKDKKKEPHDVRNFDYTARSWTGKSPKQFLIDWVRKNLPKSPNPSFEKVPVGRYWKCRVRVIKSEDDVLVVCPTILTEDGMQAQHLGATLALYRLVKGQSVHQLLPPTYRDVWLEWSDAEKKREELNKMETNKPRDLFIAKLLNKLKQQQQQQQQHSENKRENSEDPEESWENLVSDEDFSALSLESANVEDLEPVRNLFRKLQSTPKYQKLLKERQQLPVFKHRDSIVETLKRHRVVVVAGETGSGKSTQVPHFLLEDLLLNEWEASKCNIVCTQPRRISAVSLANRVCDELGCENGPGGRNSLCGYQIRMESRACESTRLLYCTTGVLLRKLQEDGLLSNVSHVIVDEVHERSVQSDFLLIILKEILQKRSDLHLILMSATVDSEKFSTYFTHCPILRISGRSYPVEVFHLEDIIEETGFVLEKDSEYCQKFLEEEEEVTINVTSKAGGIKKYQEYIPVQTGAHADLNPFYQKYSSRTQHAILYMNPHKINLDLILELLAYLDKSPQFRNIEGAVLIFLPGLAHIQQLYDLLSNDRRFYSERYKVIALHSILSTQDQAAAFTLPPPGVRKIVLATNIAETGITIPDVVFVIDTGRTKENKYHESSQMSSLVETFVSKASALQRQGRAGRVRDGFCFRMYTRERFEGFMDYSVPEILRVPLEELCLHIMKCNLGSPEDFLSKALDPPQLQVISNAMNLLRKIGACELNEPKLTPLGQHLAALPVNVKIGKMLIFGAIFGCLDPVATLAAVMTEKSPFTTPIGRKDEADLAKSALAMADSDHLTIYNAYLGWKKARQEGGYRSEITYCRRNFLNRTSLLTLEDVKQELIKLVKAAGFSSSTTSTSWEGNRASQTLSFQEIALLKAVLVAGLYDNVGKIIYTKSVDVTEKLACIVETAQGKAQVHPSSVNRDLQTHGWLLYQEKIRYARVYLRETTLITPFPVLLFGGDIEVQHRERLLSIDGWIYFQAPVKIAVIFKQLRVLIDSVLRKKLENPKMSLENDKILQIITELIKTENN

[9] = biological target: T1, Eukaryotic initiation factor 4A-III; test: ATP competitive inhibition of MLN51-induced full length recombinant human N-terminal His6/SUMO-tagged eIF4A3 expressed in Escherichia coli BL21(DE3) using varying ATP levels after 30 mins by ADP-Glo luminescence assay
[10] = biological target: U5 small nuclear ribonucleoprotein 200 kDa helicase (Homo sapiens, UniProt O75643); test: Inhibition of full length recombinant human N-terminal His-tagged BRR2 RNA dependent ATPase activity expressed in baculovirus infected Sf9 insect cells using single stranded poly(U) RNA as substrate after 30 mins by ADP-Glo luminescence assay
U5 small nuclear ribonucleoprotein 200 kDa helicase, sequence (O75643 whole entry): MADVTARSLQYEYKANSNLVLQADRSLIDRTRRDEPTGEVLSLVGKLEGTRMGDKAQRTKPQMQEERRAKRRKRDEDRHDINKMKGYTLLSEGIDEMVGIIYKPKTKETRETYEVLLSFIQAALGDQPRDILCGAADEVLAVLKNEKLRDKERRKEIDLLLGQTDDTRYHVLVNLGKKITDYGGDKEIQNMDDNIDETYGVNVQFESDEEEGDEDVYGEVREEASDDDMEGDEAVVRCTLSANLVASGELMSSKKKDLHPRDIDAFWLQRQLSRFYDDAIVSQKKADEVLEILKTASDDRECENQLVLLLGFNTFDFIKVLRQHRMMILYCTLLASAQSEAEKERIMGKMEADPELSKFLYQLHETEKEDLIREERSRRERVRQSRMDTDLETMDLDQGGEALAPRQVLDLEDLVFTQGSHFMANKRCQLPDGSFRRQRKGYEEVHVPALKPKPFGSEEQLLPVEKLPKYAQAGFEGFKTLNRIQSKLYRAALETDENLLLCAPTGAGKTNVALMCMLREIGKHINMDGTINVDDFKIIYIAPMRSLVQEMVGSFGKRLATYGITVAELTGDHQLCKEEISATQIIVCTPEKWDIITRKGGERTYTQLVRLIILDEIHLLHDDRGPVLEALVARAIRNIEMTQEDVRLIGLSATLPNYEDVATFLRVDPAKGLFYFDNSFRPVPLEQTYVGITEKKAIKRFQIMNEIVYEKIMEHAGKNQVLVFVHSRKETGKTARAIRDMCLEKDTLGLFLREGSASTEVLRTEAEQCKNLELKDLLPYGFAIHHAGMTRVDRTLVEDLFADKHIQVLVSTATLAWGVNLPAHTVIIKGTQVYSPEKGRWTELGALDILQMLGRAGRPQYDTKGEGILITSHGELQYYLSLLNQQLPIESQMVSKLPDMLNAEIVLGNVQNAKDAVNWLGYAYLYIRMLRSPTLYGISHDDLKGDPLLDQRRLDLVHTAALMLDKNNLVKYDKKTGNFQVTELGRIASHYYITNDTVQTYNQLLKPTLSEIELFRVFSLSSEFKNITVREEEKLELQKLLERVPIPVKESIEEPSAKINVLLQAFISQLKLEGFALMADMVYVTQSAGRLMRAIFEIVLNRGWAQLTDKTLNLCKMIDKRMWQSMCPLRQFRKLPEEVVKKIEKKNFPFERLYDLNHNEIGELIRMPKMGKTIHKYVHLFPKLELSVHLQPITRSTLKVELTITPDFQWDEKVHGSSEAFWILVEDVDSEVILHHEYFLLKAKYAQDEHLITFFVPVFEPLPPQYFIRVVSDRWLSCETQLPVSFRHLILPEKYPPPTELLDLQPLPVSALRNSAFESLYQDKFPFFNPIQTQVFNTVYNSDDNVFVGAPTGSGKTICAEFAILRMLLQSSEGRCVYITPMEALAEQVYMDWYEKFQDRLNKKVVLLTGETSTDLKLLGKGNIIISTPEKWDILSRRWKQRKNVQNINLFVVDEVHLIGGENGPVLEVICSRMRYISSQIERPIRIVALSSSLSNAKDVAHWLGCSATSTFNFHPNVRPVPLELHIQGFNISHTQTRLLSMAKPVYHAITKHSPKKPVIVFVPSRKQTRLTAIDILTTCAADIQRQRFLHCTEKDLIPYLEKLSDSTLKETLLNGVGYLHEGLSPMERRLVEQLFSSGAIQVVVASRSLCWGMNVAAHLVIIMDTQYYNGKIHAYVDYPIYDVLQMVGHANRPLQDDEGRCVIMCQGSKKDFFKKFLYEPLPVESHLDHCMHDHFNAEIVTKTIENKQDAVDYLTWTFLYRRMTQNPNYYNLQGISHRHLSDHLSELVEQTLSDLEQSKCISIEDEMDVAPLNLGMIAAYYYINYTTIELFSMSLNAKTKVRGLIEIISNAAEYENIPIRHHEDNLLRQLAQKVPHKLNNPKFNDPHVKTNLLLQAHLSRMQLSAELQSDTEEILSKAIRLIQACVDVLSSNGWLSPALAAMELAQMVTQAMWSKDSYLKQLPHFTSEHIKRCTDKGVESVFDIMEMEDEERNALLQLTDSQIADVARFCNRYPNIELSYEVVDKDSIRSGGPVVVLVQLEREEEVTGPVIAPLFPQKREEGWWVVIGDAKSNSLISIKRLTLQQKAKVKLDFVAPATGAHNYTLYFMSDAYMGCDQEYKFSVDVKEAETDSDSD

[11] = biological target: T1, Eukaryotic initiation factor 4A-III; test: Inhibition of MLN51-induced full length recombinant human N-terminal His6/SUMO-tagged eIF4A3 expressed in Escherichia coli BL21(DE3) using 1.5 ug/ml single stranded poly(U) RNA after 45 mins by ADP-Glo luminescence assay
[12] = biological target: T1, Eukaryotic initiation factor 4A-III; test: Binding affinity to full length recombinant human N-terminal His6/SUMO-tagged eIF4A3 expressed in Escherichia coli BL21(DE3) by isothermal titration calorimetric method
[13] = biological target: T1, Eukaryotic initiation factor 4A-III; remark: listed apart in the source
Description: Binding affinity to full length recombinant human N-terminal His6/SUMO-tagged eIF4A3 expressed in Escherichia coli BL21(DE3) assessed as change in entropy by isothermal titration calorimetric method

T1 sequence (P38919 whole entry): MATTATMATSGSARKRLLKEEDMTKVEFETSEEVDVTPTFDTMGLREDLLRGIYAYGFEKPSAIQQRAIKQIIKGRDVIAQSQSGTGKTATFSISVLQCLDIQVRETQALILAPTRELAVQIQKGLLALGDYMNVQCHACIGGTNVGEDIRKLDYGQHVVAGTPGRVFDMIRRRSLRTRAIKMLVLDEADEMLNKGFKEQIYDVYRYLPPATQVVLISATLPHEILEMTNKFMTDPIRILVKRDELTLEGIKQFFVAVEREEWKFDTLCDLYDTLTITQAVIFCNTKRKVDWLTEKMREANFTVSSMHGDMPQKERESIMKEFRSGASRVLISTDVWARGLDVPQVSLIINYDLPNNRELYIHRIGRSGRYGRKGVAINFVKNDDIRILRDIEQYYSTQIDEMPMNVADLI

CC(C)c1ccc2cc(C(=O)O)[nH]c2c1
Kd [1]: 5.4 µM
IC50 [2]: 27 µM

CC(C)c1ccc2c(F)c(C(=O)O)[nH]c2c1
IC50 [2]: 20 µM

CC(C)c1ccc2[nH]c(C(=O)O)cc2c1
IC50 [2]: > 100 µM

CC(C)c1cc(F)c2cc(C(=O)O)[nH]c2c1
IC50 [2]: 5 µM

CC(C)c1cc(Cl)c2cc(C(=O)O)[nH]c2c1F
IC50 [3]: > 100 µM
IC50 [4]: > 100 µM
deltaG [5]: -9.9 kcal/mol
Kd [1]: 0.2 µM
T1/2 [6]: 8.9 s
deltaH [7]: -26 kcal/mol
IC50 [8]: > 100 µM
Ki [9]: 0.43 µM
IC50 [10]: > 100 µM
IC50 [11]: 0.36 µM
Kd [12]: 0.062 µM
-TdeltaS [13]: 16.1 kcal/mol
IC50 [2]: 0.97 µM

CC(C)c1ccc2cc(C(=O)O)[nH]c2c1Cl
IC50 [2]: > 100 µM

CCc1ccc2cc(C(=O)O)[nH]c2c1
IC50 [2]: > 100 µM

CC(C)c1cc2[nH]c(C(=O)O)cc2cc1F
IC50 [2]: 30 µM

CC(C)c1ccc2cc(-c3nnn[nH]3)[nH]c2c1
IC50 [2]: 30 µM

CC(C)c1ccc2cc(C(N)=O)[nH]c2c1
IC50 [2]: > 100 µM

CC(C)c1ccc2cc(C(=O)O)[nH]c2c1F
IC50 [4]: > 100 µM
IC50 [2]: 6.9 µM

Cc1ccc2cc(C(=O)O)[nH]c2c1
IC50 [2]: > 100 µM

COC(=O)c1cc2ccc(C(C)C)cc2[nH]1
IC50 [2]: > 100 µM

CC(C)c1cccc2cc(C(=O)O)[nH]c12
IC50 [2]: > 100 µM

CC(C)c1ccc2cc(C(=O)O)n(C)c2c1
IC50 [2]: > 100 µM

CC(C)c1cc(Cl)c2cc(C(=O)O)[nH]c2c1
IC50 [4]: > 100 µM
IC50 [2]: 1.9 µM

O=C(O)c1cc2ccc(Cl)cc2[nH]1
IC50 [2]: > 100 µM

C[C@H]1C[C@@]2(O[C@H]3C[C@H]4[C@@H]5CC[C@H]6C[C@H](O)CC[C@]6(C)[C@H]5[C@@H](O)C[C@]4(C)[C@H]3[C@@]2(C)O)OC1(C)C [HIPPURISTANOL]
IC50 [3]: 18 µM
IC50 [4]: 3.1 µM
Kd [1]: 50 µM
T1/2 [6]: 12.2 s
IC50 [8]: > 30 µM
IC50 [10]: > 30 µM
IC50 [2]: 40 µM
